In article PMC9445877, “Blockade of TMPRSS2-mediated priming of SARS-CoV-2 by lactoferricin” (Frontiers in Immunology, 2022):
“Also recorded” adds a separate entry of the source. Read-outs that look alike come from different tables or passages of the source. Peptide text beside a SMILES is read from it.

Assays:
Vero cells = test: Cytotoxicity assay in Vero cells (EZ4U); assay type: cell-based, African green monkey; conditions: 48 h, without virus, 20 and 40 µg/mL, DMEM/2% FCS, 3 experiments, 80% viability cut-off
Procedure: Vero cells were seeded into 96-well flat-bottom plates (1×10^4 cells, 80 µl/well) in DMEM medium supplemented with 10% FCS, antibiotics, and non-essential amino acids. On the day of the assay, the medium was exchanged for the reduced serum supplemented DMEM (DMEM/2% FCS) with the peptides or a vehicle only at the designated concentration (100 µl/well). As a positive control, 30% DMSO in DMEM/2% FCS was used. Negative control cells were incubated in DMEM/2% FCS only. Two days (48 h) later, cell viability was assessed as we did previously ([52]) using the EZ4U cell proliferation and cytotoxicity assay substrate (Biomedica Immunoassays, Vienna, Austria).

plasmin = target: T1, plasmin (Homo sapiens, UniProt P00747); test: In vitro proteolysis assay, plasmin; assay type: biochemical; conditions: 37°C; for inhibition of proteolytic activity of plasmin (in words): plasmin 10 nM, Tris-HCl buffer, Boc-Gln-Ala-Arg-AMC
T1 construct: purchased Roche Diagnostics GmbH, Mannheim, Germany #10602361001; host or cells: human plasma
Procedure: (§1) Figure 1 Effect of LF and the LF-derived peptides pLF1-pLF3 on the activity of serine proteases. Proteolytic activities of purified TMPRSS2 (A), plasmin (B), elastase (C), and trypsin (D) were measured with or without peptides pLF1, pLF2, pLF3, LF or the control peptide pCTR at 37°C in Tris-HCl buffer using the fluorogenic substrate Boc-Gln-Ala-Arg-AMC. The reaction was monitored using an ELISA reader for the indicated time intervals.
(§2) The proteolytic activities of plasmin (10 nM; from human plasma; #10602361001, Roche Diagnostics GmbH, Mannheim, Germany), trypsin (10 nM; from bovine pancreas; #T1005, Sigma-Aldrich, St. Louis, MO), elastase (20 nM; from porcine pancreas; #E1250, Sigma-Aldrich) and TMPRSS2 (25 nM; recombinant protein produced in mammalian cells; #MBS1193731, MyBioSource, San Diego, CA) were measured in a Nunc black fluorescence-based cell assay plate (Sigma-Aldrich) in Tris-HCl buffer (20 mM, pH 8.0, 150 mM NaCl). The proteases were incubated with or without inhibitory and control compounds at 37°C for 30 min, and then the fluorogenic substrate (Boc-Gln-Ala-Arg-AMC; 25 µM; #BML-P237, ENZO Life Sciences, Lörrach, Germany) was added. The reaction was measured using an ELISA plate reader (Synergy H1 BioTek microplate reader, Winooski, Vermont, U.S., or TECAN GENios, GMI, USA) under the excitation wavelength of 380 nm and the emission wavelength of 460 nm at the indicated time points.
Optionally ( Figure 1B , inset), purified active plasmin (10 mU/mL) was coated in PBS directly on a 96-well Falcon transparent plate for 2 h at 37°C. The wells were then blocked with 1% BSA, washed, and then incubated in PBS at 37°C with the chromogenic plasmin substrate S-2251 (0.8 mM, D-Val-Leu-Lys-pNA, CoaChrom Diagnostica). In this case, the absorbance change at 405 nm was monitored at different time points by using an ELISA plate reader (SpectraMax M5, Molecular Devices).

TMPRSS2 = target: T2, TMPRSS2 (Homo sapiens, UniProt O15393); test: In vitro proteolysis assay, TMPRSS2, fluorogenic substrate Boc-Gln-Ala-Arg-AMC; assay type: biochemical; conditions: 37°C, Boc-Gln-Ala-Arg-AMC; for inhibition of proteolytic activity of TMPRSS2 (in words): Tris-HCl buffer
T2 construct: TMPRSS2 (25 nM; recombinant protein produced in mammalian cells; #MBS1193731, MyBioSource, San Diego, CA); purchased MyBioSource, San Diego, CA #MBS1193731; host or cells: mammalian cells
Procedure: as §1, §2

[1] = tested on: SARS-CoV-2 S protein cleavage by TMPRSS2; test: SARS-CoV-2 S protein digestion assay with TMPRSS2 (immunoblot); assay type: biochemical; conditions: S protein 1 µg, TMPRSS2 25 nM, 120 min, 37°C, Tris-HCl 20 mM pH 7.5, 150 mM NaCl, n = 4
elastase = test: In vitro proteolysis assay, elastase; assay type: biochemical, porcine; conditions: elastase 20 nM; 37°C, Tris-HCl buffer, Boc-Gln-Ala-Arg-AMC
Procedure: as §1
as §2, with “The proteases were incubated with or without inhibitory and control compounds at 37°C for 30 min, and then the fluorogenic substrate (Boc-Gln-Ala-Arg-AMC; 25 µM; #BML-P237, ENZO Life Sciences, Lörrach, Germany) was added.” left out

[2] = tested on: SARS-CoV-2 infection, Vero cells; assay type: cell-based, SARS-CoV-2 (African green monkey cells); conditions: n = 3
SARS-CoV-2 = assay type: cell-based; conditions: for SARS-CoV-2 infection of permissive cells (in words): summary statement

T1 sequence (P00747 581-810 limits assumed): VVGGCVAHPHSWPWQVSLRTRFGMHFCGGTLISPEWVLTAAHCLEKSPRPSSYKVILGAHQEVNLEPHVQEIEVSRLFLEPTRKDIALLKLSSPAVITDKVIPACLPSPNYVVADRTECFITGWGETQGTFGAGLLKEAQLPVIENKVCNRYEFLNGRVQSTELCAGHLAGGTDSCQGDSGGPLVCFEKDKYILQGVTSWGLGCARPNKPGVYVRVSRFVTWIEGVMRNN
T1 sequence (P00747 97-580 limits assumed): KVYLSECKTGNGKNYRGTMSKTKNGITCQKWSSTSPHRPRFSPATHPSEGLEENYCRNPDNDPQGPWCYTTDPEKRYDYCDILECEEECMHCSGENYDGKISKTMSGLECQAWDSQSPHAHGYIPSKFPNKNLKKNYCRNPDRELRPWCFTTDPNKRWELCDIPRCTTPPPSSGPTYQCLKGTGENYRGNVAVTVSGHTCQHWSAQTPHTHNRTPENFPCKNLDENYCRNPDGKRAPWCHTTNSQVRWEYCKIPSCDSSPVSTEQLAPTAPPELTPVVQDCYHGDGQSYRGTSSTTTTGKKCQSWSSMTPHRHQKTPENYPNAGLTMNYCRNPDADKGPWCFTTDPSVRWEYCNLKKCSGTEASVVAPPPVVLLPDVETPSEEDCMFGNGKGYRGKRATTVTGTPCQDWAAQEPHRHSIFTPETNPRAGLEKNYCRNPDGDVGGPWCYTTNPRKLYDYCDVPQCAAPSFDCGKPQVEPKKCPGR
T2 sequence (O15393 256-492 limits assumed): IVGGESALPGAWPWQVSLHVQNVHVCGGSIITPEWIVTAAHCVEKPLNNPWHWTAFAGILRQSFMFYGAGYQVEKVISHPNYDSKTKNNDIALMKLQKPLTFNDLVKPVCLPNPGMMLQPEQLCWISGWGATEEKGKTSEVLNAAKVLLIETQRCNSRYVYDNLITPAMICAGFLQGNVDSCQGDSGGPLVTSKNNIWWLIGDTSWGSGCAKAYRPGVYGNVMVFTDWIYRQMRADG
T2 sequence (O15393 106-255 limits assumed): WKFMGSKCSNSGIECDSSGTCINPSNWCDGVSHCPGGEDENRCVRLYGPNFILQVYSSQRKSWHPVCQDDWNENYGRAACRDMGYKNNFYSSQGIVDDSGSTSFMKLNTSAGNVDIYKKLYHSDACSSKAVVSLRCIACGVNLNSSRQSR

C[S+](C)[O-] [30% DMSO]
cytotoxicity, Vero cells (in words) (Vero cells): significantly (p***<0.0005) affected viability of Vero cells

CC(C)[C@H](NC(=O)[C@H](C)NC(=O)[C@H](CS)NC(=O)[C@H](Cc1c[nH]c2ccccc12)NC(=O)[C@H](CCC(N)=O)NC(=O)[C@@H](NC(=O)[C@H](CO)NC(=O)[C@H](CCCNC(=N)N)NC(=O)[C@H](CCCNC(=N)N)NC(=O)[C@H](CCCNC(=N)N)NC(=O)CN)C(C)C)C(=O)N[C@@H](CO)C(=O)N[C@@H](CCC(N)=O)C(=O)N1CCC[C@H]1C(=O)N[C@@H](CCC(=O)O)C(=O)N[C@@H](C)C(=O)N[C@H](C(=O)N[C@@H](CCCCN)C(=O)N[C@@H](CS)C(=O)O)[C@@H](C)O [pLF1] (H-GRRRSVQWCAVSQPEATKC-OH)
IC50 (plasmin; Figure 1B inset: plasmin 10 mU/mL coated in PBS, chromogenic substrate S-2251 0.8 mM, PBS, absorbance 405 nm, relative IC50, 4PL fit, experiments at least three times, read-out: half-maximum inhibitory concentration (IC50), plasmin (converted)): 3.19 µM | maximum inhibition of TMPRSS2 (plateau) (TMPRSS2; at 40 - 80 µg/mL): ~ 40%

NFRTKSCPLELAKELKLCS [pCTR, negative control peptide, a scrambled variant of pLF3, reference compound]
cleavage of SARS-CoV-2 S protein by TMPRSS2 (in words) [1]: no such effect was seen | inhibition of proteolytic activity of plasmin (in words) (plasmin): neither full-length LF nor a control peptide (pCTR), was able to inhibit; also recorded: neither full-length LF nor other tested peptides derived from LF, nor the control peptide pCTR, significantly reduced | inhibition of proteolytic activity of elastase (in words) (elastase): neither full-length LF nor other tested peptides derived from LF, nor the control peptide pCTR, significantly reduced | inhibition of proteolytic activity of TMPRSS2 (in words) (TMPRSS2): neither full-length LF nor pCTR inhibited; also recorded: neither full-length LF nor other tested peptides derived from LF, nor the control peptide pCTR, significantly reduced | inhibition of SARS-CoV-2 infection, Vero cells (in words) ([2]; pre-incubation 40-60 min): did not show any inhibitory potential

aprotinin [reference compound]
inhibition of proteolytic activity of plasmin (in words) (plasmin): blunted the proteolytic activity of both proteases | inhibition of proteolytic activity of TMPRSS2 (in words) (TMPRSS2): blunted the proteolytic activity of both proteases

GRRRRSVQWCAVSQPEATKCFQWQRNMRKVRGPPVSCIKRDSPIQCIQA [LFC, natural peptide of 49 amino acids from the N-terminus of human LF, produced by pepsin cleavage]
inhibition of proteolytic activity of TMPRSS2 (in words) (TMPRSS2): inhibitory effect on TMPRSS2 comparable to that of pLF1 | inhibition of proteolytic activity of TMPRSS2 (in words) (TMPRSS2; listed as lactoferricin): significantly inhibited | inhibition of SARS-CoV-2 infection in Vero and Calu-3 cells (SARS-CoV-2; Vero and Calu-3 cells, summary statement in Discussion): 40-50% | SARS-CoV-2 infection of permissive cells (in words) (SARS-CoV-2): inhibits cell entry of SARS-CoV-2 through blocking TMPRSS2-mediated virus priming | SARS-CoV-2 infection of permissive cells (in words) (SARS-CoV-2; listed as lactoferricin): significantly inhibited | infection rate of replication-competent SARS-CoV-2 in Vero cells (in words) ([2]; 80 µg/mL, pre-incubation approx. 1 h): reduced the infection rate
